# Results published in paper PMC11129975, “A first-in-human phase I study of TAS-117, an allosteric AKT inhibitor, in patients with advanced solid tumors” (Cancer Chemotherapy and Pharmacology, 2024).
# Assay: Phase I safety: adverse events, adverse drug reactions, DLTs in patients with advanced solid tumors
# Type: in vivo, human
# Description: This was a phase I, open-label, non-randomized, dose-escalating first-in-human study to evaluate the safety, pharmacokinetics, antitumor activity, pharmacodynamics, and pharmacogenomics of TAS-117 in patients with advanced solid tumors. The study had three phases: a dose escalation phase (DEP), a regimen modification phase (RMP), and a safety assessment phase (SAP). The treatment cycle on each regimen lasted 21 days. The DEP used an accelerated titration and 3 + 3 design. TAS-117 was administered orally once daily (QD) on an empty stomach (1 h before or 2 h after a meal). Dosing was determined based on a 4-week repeated oral-dose toxicology study in monkeys (data on file, Taiho Pharmaceutical Co., Ltd.); the highest non-severely toxic dose was 1.2 mg/kg/day, which was converted to 3.84 mg/body/day, or 2.4 mg/m^2. Therefore, the starting dose was determined to be ≤ 2.4 mg/m^2. At dose level 1, TAS-117 was administered at 2 mg QD (Day − 2), and the dose was increased to 4 mg QD after 2 days (Day 1). The RMP was conducted according to a 3 + 3 design. During this phase, the dose regimen was changed from QD administration to intermittent dosing of daily TAS-117 with 4 days on/3 days off. TAS-117 was administered on an empty stomach. Dose-limiting toxicities (DLTs) were evaluated in Cycle 1 of the DEP and RMP. […] The RD and regimen for the SAP were determined based on the safety, pharmacokinetics, pharmacodynamics, and antitumor activity profile determined in the DEP and RMP. During the SAP, the safety and preliminary efficacy profiles of TAS-117 were assessed at the RD and recommended regimen. Three cohorts were included in this assessment. Cohort 1 included patients with endometrial cancer with a PIK3CA mutation; cohort 2 included patients with endometrial cancer with an AKT1 mutation, AKT1 amplification, or AKT2 amplification; and cohort 3 included patients with ovarian clear cell carcinoma.
# The primary endpoints were the proportion of patients who experienced DLTs in Cycle 1 of the DEP and RMP and the incidence of adverse events (AEs) and adverse drug reactions (ADRs) in the SAP. AEs and ADRs were coded using the Medical Dictionary for Regulatory Activities (MedDRA; version 24.1) and graded according to the National Cancer Institute Common Terminology Criteria for Adverse Events (CTCAE; version 4.03). Secondary endpoints were pharmacokinetic findings, changes in the ratio of phosphorylated PRAS40 (pPRAS40)/total PRAS40 from baseline, efficacy, and pharmacogenomics findings.
smiles,measurement,setting,value
C[C@]1(O)C[C@@](N)(c2ccc(-c3nc4n(c3-c3ccccc3)COc3ccncc3-4)cc2)C1 [TAS-117],Grade 3 maculopapular rash with treatment interruption and/or dose reduction,"RMP dose level 5 (32 mg), Cycle 1 and Cycle 2",two of three patients
same,DLT (grade 3 maculopapular rash) during Cycle 1,"RMP dose level 5 (32 mg), intermittent administration",one of the three patients
same,Adverse drug reactions: ALT increased,"RMP n = 10, All grade",0 (0.0) n (%)
same,Adverse drug reactions: AST increased,"RMP n = 10, All grade",1 (10.0) n (%)
same,Adverse drug reactions: Any events,"RMP n = 10, All grade",10 (100.0) n (%)
same,Adverse drug reactions: Blood AP increased,"RMP n = 10, All grade",1 (10.0) n (%)
same,Adverse drug reactions: Decreased appetite,"RMP n = 10, All grade",5 (50.0) n (%)
same,Adverse drug reactions: Diarrhea,"RMP n = 10, All grade",2 (20.0) n (%)
same,Adverse drug reactions: Dry skin,"RMP n = 10, All grade",1 (10.0) n (%)
same,Adverse drug reactions: GGT increased,"RMP n = 10, All grade",2 (20.0) n (%)
same,Adverse drug reactions: GI disorders,"RMP n = 10, All grade",8 (80.0) n (%)
same,Adverse drug reactions: General disorders and administration site conditions,"RMP n = 10, All grade",5 (50.0) n (%)
same,Adverse drug reactions: Hyperglycemia,"RMP n = 10, All grade",3 (30.0) n (%)
same,Adverse drug reactions: Investigations,"RMP n = 10, All grade",6 (60.0) n (%)
same,Adverse drug reactions: Metabolism and nutrition disorders,"RMP n = 10, All grade",5 (50.0) n (%)
same,Adverse drug reactions: Nausea,"RMP n = 10, All grade",3 (30.0) n (%)
same,Adverse drug reactions: Neutrophil count decreased,"RMP n = 10, All grade",3 (30.0) n (%)
same,Adverse drug reactions: Pruritus,"RMP n = 10, All grade",4 (40.0) n (%)
same,Adverse drug reactions: Pyrexia,"RMP n = 10, All grade",4 (40.0) n (%)
same,Adverse drug reactions: Rash maculo-papular,"RMP n = 10, All grade",9 (90.0) n (%)
same,Adverse drug reactions: Skin and SC tissue disorders,"RMP n = 10, All grade",9 (90.0) n (%)
same,Adverse drug reactions: Stomatitis,"RMP n = 10, All grade",8 (80.0) n (%)
same,Adverse drug reactions: Vomiting,"RMP n = 10, All grade",1 (10.0) n (%)
same,Adverse drug reactions: WBC count decreased,"RMP n = 10, All grade",3 (30.0) n (%)
same,Adverse events: ALT increased,"RMP n = 10, All grade",1 (10.0) n (%)
same,Adverse events: AST increased,"RMP n = 10, All grade",2 (20.0) n (%)
same,Adverse events: Any events,"RMP n = 10, All grade",10 (100.0) n (%)
same,Adverse events: Blood AP increased,"RMP n = 10, All grade",1 (10.0) n (%)
same,Adverse events: Decreased appetite,"RMP n = 10, All grade",7 (70.0) n (%)
same,Adverse events: Diarrhea,"RMP n = 10, All grade",3 (30.0) n (%)
same,Adverse events: Dry skin,"RMP n = 10, All grade",1 (10.0) n (%)
same,Adverse events: GGT increased,"RMP n = 10, All grade",2 (20.0) n (%)
same,Adverse events: GI disorders,"RMP n = 10, All grade",9 (90.0) n (%)
same,Adverse events: General disorders and administration site conditions,"RMP n = 10, All grade",9 (90.0) n (%)
same,Adverse events: Hyperglycemia,"RMP n = 10, All grade",3 (30.0) n (%)
same,Adverse events: Investigations,"RMP n = 10, All grade",7 (70.0) n (%)
same,Adverse events: Metabolism and nutrition disorders,"RMP n = 10, All grade",7 (70.0) n (%)
same,Adverse events: Nausea,"RMP n = 10, All grade",4 (40.0) n (%)
same,Adverse events: Neutrophil count decreased,"RMP n = 10, All grade",3 (30.0) n (%)
same,Adverse events: Pruritus,"RMP n = 10, All grade",4 (40.0) n (%)
same,Adverse events: Pyrexia,"RMP n = 10, All grade",6 (60.0) n (%)
same,Adverse events: Rash maculo-papular,"RMP n = 10, All grade",9 (90.0) n (%)
same,Adverse events: Skin and SC tissue disorders,"RMP n = 10, All grade",9 (90.0) n (%)
same,Adverse events: Stomatitis,"RMP n = 10, All grade",8 (80.0) n (%)
same,Adverse events: Vomiting,"RMP n = 10, All grade",2 (20.0) n (%)
same,Adverse events: WBC count decreased,"RMP n = 10, All grade",3 (30.0) n (%)
same,Adverse drug reactions: ALT increased,"RMP n = 10, ≥ Grade 3",0 (0.0) n (%)
same,Adverse drug reactions: AST increased,"RMP n = 10, ≥ Grade 3",0 (0.0) n (%)
same,Adverse drug reactions: Any events,"RMP n = 10, ≥ Grade 3",6 (60.0) n (%)
same,Adverse drug reactions: Blood AP increased,"RMP n = 10, ≥ Grade 3",0 (0.0) n (%)
same,Adverse drug reactions: Decreased appetite,"RMP n = 10, ≥ Grade 3",0 (0.0) n (%)
same,Adverse drug reactions: Diarrhea,"RMP n = 10, ≥ Grade 3",0 (0.0) n (%)
same,Adverse drug reactions: Dry skin,"RMP n = 10, ≥ Grade 3",0 (0.0) n (%)
same,Adverse drug reactions: GGT increased,"RMP n = 10, ≥ Grade 3",1 (10.0) n (%)
same,Adverse drug reactions: GI disorders,"RMP n = 10, ≥ Grade 3",0 (0.0) n (%)
same,Adverse drug reactions: General disorders and administration site conditions,"RMP n = 10, ≥ Grade 3",0 (0.0) n (%)
same,Adverse drug reactions: Hyperglycemia,"RMP n = 10, ≥ Grade 3",2 (20.0) n (%)
same,Adverse drug reactions: Investigations,"RMP n = 10, ≥ Grade 3",3 (30.0) n (%)
same,Adverse drug reactions: Metabolism and nutrition disorders,"RMP n = 10, ≥ Grade 3",2 (20.0) n (%)
same,Adverse drug reactions: Nausea,"RMP n = 10, ≥ Grade 3",0 (0.0) n (%)
same,Adverse drug reactions: Neutrophil count decreased,"RMP n = 10, ≥ Grade 3",0 (0.0) n (%)
same,Adverse drug reactions: Pruritus,"RMP n = 10, ≥ Grade 3",0 (0.0) n (%)
same,Adverse drug reactions: Pyrexia,"RMP n = 10, ≥ Grade 3",0 (0.0) n (%)
same,Adverse drug reactions: Rash maculo-papular,"RMP n = 10, ≥ Grade 3",3 (30.0) n (%)
same,Adverse drug reactions: Skin and SC tissue disorders,"RMP n = 10, ≥ Grade 3",3 (30.0) n (%)
same,Adverse drug reactions: Stomatitis,"RMP n = 10, ≥ Grade 3",0 (0.0) n (%)
same,Adverse drug reactions: Vomiting,"RMP n = 10, ≥ Grade 3",0 (0.0) n (%)
same,Adverse drug reactions: WBC count decreased,"RMP n = 10, ≥ Grade 3",2 (20.0) n (%)
same,Adverse events: ALT increased,"RMP n = 10, ≥ Grade 3",0 (0.0) n (%)
same,Adverse events: AST increased,"RMP n = 10, ≥ Grade 3",0 (0.0) n (%)
same,Adverse events: Any events,"RMP n = 10, ≥ Grade 3",7 (70.0) n (%)
same,Adverse events: Blood AP increased,"RMP n = 10, ≥ Grade 3",0 (0.0) n (%)
same,Adverse events: Decreased appetite,"RMP n = 10, ≥ Grade 3",0 (0.0) n (%)
same,Adverse events: Diarrhea,"RMP n = 10, ≥ Grade 3",1 (10.0) n (%)
same,Adverse events: Dry skin,"RMP n = 10, ≥ Grade 3",0 (0.0) n (%)
same,Adverse events: GGT increased,"RMP n = 10, ≥ Grade 3",1 (10.0) n (%)
same,Adverse events: GI disorders,"RMP n = 10, ≥ Grade 3",2 (20.0) n (%)
same,Adverse events: General disorders and administration site conditions,"RMP n = 10, ≥ Grade 3",0 (0.0) n (%)
same,Adverse events: Hyperglycemia,"RMP n = 10, ≥ Grade 3",2 (20.0) n (%)
same,Adverse events: Investigations,"RMP n = 10, ≥ Grade 3",3 (30.0) n (%)
same,Adverse events: Metabolism and nutrition disorders,"RMP n = 10, ≥ Grade 3",2 (20.0) n (%)
same,Adverse events: Nausea,"RMP n = 10, ≥ Grade 3",0 (0.0) n (%)
same,Adverse events: Neutrophil count decreased,"RMP n = 10, ≥ Grade 3",0 (0.0) n (%)
same,Adverse events: Pruritus,"RMP n = 10, ≥ Grade 3",0 (0.0) n (%)
same,Adverse events: Pyrexia,"RMP n = 10, ≥ Grade 3",0 (0.0) n (%)
same,Adverse events: Rash maculo-papular,"RMP n = 10, ≥ Grade 3",3 (30.0) n (%)
same,Adverse events: Skin and SC tissue disorders,"RMP n = 10, ≥ Grade 3",3 (30.0) n (%)
same,Adverse events: Stomatitis,"RMP n = 10, ≥ Grade 3",0 (0.0) n (%)
same,Adverse events: Vomiting,"RMP n = 10, ≥ Grade 3",0 (0.0) n (%)
same,Adverse events: WBC count decreased,"RMP n = 10, ≥ Grade 3",2 (20.0) n (%)
same,Adverse drug reactions: ALT increased,"SAP n = 43, All grade",6 (14.0) n (%)
